According to ChEMBL document CHEMBL3046022, “Synthesis and pharmacological screening of some novel chalconyl derivatives of substituted phenyl semicarbazide” (2011):

Assays:
Type in all cases: functional
Conditions in all cases: route intraperitoneal
Mus musculus [1] = experiment: Anticonvulsant activity in Mus musculus albino (mouse) assessed as protection against maximal electroshock-induced seizures at 30 mg/kg, ip administered 30 min prior to electro shock-challenge measured for 2 min relative to phenytoin
Mus musculus [2] = experiment: Anticonvulsant activity in Mus musculus albino (mouse) assessed as protection against maximal electroshock-induced seizures at 30 mg/kg, ip administered 30 min prior to electro shock-challenge measured for 2 min relative to control
Mus musculus [3] = experiment: Anticonvulsant activity in Mus musculus albino (mouse) assessed as protection against maximal electroshock-induced seizures at 25 mg/kg, ip administered 30 min prior to electro shock-challenge measured for 2 min relative to control

Compound	Activity (Mus musculus [1]) [%]	Activity (Mus musculus [2]) [%]	Activity (Mus musculus [3]) [%]
COc1ccc(/C=C/C(=N\NC(=O)Nc2ccc(Br)cc2)c2ccccc2O)cc1	64.34	51.44	–
CN(C)c1ccc(/C=C/C(=N\NC(=O)Nc2ccc(Br)cc2)c2ccccc2O)cc1	38.71	30.95	–
O=C(N/N=C(\C=C\c1ccccc1O)c1ccc(O)cc1O)Nc1ccc(Br)cc1	91.21	72.93	–
CN(C)c1ccc(/C=C/C(=N\NC(=O)Nc2ccc(Br)cc2)c2ccc(O)cc2O)cc1	30.35	24.27	–
O=C(N/N=C(\C=C\c1ccccc1O)c1ccccc1O)Nc1ccc(Br)cc1	81.06	64.81	–
O=C(N/N=C(\C=C\c1ccccc1O)c1cc(O)ccc1O)Nc1ccc(Br)cc1	94	75.16	–
O=C(N/N=C(\C=C\c1ccc(O)cc1)c1cc(O)ccc1O)Nc1ccc(Br)cc1	95.82	76.61	–
COc1ccc(/C=C/C(=N\NC(=O)Nc2ccc(Br)cc2)c2cc(O)ccc2O)cc1	49.71	39.75	–
O=C(N/N=C(\C=C\c1ccccc1)c1ccccc1O)Nc1ccc(F)cc1	28.96	23.16	–
O=C(N/N=C(\C=C\c1ccc(O)cc1)c1ccccc1O)Nc1ccc(F)cc1	87.74	70.15	–
COc1ccc(/C=C/C(=N\NC(=O)Nc2ccc(F)cc2)c2ccccc2O)cc1	66.42	53.11	–
CN(C)c1ccc(/C=C/C(=N\NC(=O)Nc2ccc(F)cc2)c2ccccc2O)cc1	45.26	36.19	–
O=C(N/N=C(\C=C\c1ccccc1O)c1ccc(O)cc1O)Nc1ccc(F)cc1	92.62	74.05	–
CN(C)c1ccc(/C=C/C(=N\NC(=O)Nc2ccc(F)cc2)c2ccc(O)cc2O)cc1	37.04	29.62	–
O=C(N/N=C(\C=C\c1ccccc1O)c1ccccc1O)Nc1ccc(F)cc1	83.56	66.81	–
O=C(N/N=C(\C=C\c1ccccc1O)c1cc(O)ccc1O)Nc1ccc(F)cc1	94.98	75.94	–
O=C(N/N=C(\C=C\c1ccc(O)cc1)c1cc(O)ccc1O)Nc1ccc(F)cc1	99.72	79.73	–
COc1ccc(/C=C/C(=N\NC(=O)Nc2ccc(F)cc2)c2cc(O)ccc2O)cc1	56.54	45.21	–
O=C(N/N=C(\C=C\c1ccccc1)c1ccccc1O)Nc1ccc(Br)cc1	28.26	22.6	–
O=C(N/N=C(\C=C\c1ccc(O)cc1)c1ccccc1O)Nc1ccc(Br)cc1	84.95	67.92	–
O=C1NC(=O)C(c2ccccc2)(c2ccccc2)N1 [PHENYTOIN]	–	–	79.95
